According to PubChem BioAssay AID330 (DTP/NCI, 2004):
Several values for one entry are separate records, joined by “and”; a condition that tells them apart may be missing. Equal entries are not always repeated. Inconclusive results and toxic doses are left out. How the source made its calls: active means survival T/C of 150% or more; inactive means T/C below 125% in these data. Peptide text beside a SMILES is read from it. * marks the point of attachment. Boc = CC(C)(C)OC(=O)*; NHNH2 = NN*

Tested on: P388 leukemia ip, CD2F1 mice, survival T/C
Assay: NCI In Vivo Anticancer Drug Screen. Data for tumor model P388 Leukemia (intraperitoneal) in CD2F1 (CDF1) mice
Conditions: endpoint: median survival time, higher = longer survival
In short: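 Mice carrying the transplanted tumor received test compound or vehicle. Survival was recorded in each group, and the value is the treated-group measurement divided by that of the vehicle-treated control group.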

[1] = dose: 50.0 mg/kg/injection, schedule: Q01DX005 (ip), vehicle: saline with Tween-80
[2] = dose: 50.0 mg/kg/injection, schedule: Q01DX009 (ip), vehicle: saline with Tween-80
[3] = dose: 100.0 mg/kg/injection, schedule: Q01DX005 (ip), vehicle: saline with Tween-80
[4] = dose: 200.0 mg/kg/injection, schedule: Q01DX009 (ip), vehicle: saline with Tween-80
[5] = dose: 60.0 mg/kg/injection, schedule: Q01DX005 (ip), vehicle: saline with Tween-80

Measured: T/C

C[n+]1c(-c2cccc(OCCOCCOCCOc3cccc(-c4c5cc(N)ccc5c5ccc(N)cc5[n+]4C)c3)c2)c2cc(N)ccc2c2ccc(N)cc21
inactive: dose: 0.39 mg/kg/injection, schedule: Q01DX009 (ip), vehicle: water 111 % of control | dose: 0.78 mg/kg/injection, schedule: Q01DX009 (ip), vehicle: water 104 % of control

Cl/N=C1/C=CC(Cl)=C/C1=N/Cl
inactive: dose: 25.0 mg/kg/injection, schedule: Q01DX005 (ip), vehicle: saline 100 % of control and 101 % of control | dose: 50.0 mg/kg/injection, schedule: Q01DX005 (ip), vehicle: saline 101 % of control and 102 % of control and 115 % of control | dose: 100.0 mg/kg/injection, schedule: Q01DX005 (ip), vehicle: saline 105 % of control and 106 % of control and 120 % of control | dose: 200.0 mg/kg/injection, schedule: Q01DX005 (ip), vehicle: saline 98 % of control and 101 % of control and 110 % of control

O=C(NC(=O)C(F)(F)C(F)(F)F)Nc1cccc(F)c1
inactive: dose: 100.0 mg/kg/injection, schedule: Q01DX009 (ip), vehicle: Klucel (hydroxypropylcellulose) (HPC) 106 % of control | dose: 200.0 mg/kg/injection, schedule: Q01DX009 (ip), vehicle: Klucel (hydroxypropylcellulose) (HPC) 100 % of control

C/C(=N/NC(N)=O)c1cccc(/C(C)=N/NC(N)=O)n1.[Cl][Zn][Cl]
inactive: dose: 6.25 mg/kg/injection, schedule: Q01DX009 (ip), vehicle: saline 103 % of control | dose: 12.5 mg/kg/injection, schedule: Q01DX009 (ip), vehicle: saline 102 % of control | dose: 25.0 mg/kg/injection, schedule: Q01DX009 (ip), vehicle: saline 105 % of control

Nc1nnn(/N=C\C=N/n2nnc(N)n2)n1
inactive: dose: 100.0 mg/kg/injection, schedule: Q01DX001 (ip), vehicle: Klucel (hydroxypropylcellulose) (HPC) 94 % of control | dose: 200.0 mg/kg/injection, schedule: Q01DX001 (ip), vehicle: Klucel (hydroxypropylcellulose) (HPC) 102 % of control | dose: 400.0 mg/kg/injection, schedule: Q01DX001 (ip), vehicle: Klucel (hydroxypropylcellulose) (HPC) 105 % of control

Cc1ccc(NCCN(C)CC(C)O)c2c(=O)c3ccc(Cl)cc3sc12 (stereo not drawn)
inactive: dose: 50.0 mg/kg/injection, schedule: Q01DX005 (ip), vehicle: Klucel (hydroxypropylcellulose) (HPC) 102 % of control | dose: 100.0 mg/kg/injection, schedule: Q01DX005 (ip), vehicle: Klucel (hydroxypropylcellulose) (HPC) 101 % of control | dose: 200.0 mg/kg/injection, schedule: Q01DX005 (ip), vehicle: Klucel (hydroxypropylcellulose) (HPC) 95 % of control

CCN(CC)Cc1cc2[nH]c3c4ccc(Cl)cc4ncc3c2cc1OC
inactive: dose: 6.25 mg/kg/injection, schedule: Q01DX009 (ip), vehicle: saline with Tween-80 101 % of control | dose: 12.5 mg/kg/injection, schedule: Q01DX009 (ip), vehicle: saline with Tween-80 100 % of control | dose: 25.0 mg/kg/injection, schedule: Q01DX009 (ip), vehicle: saline with Tween-80 98 % of control | [1] 112 % of control | [2] 87 % of control and 94 % of control | [3] 102 % of control

Cn1nnnc1N/N=C(\Br)c1ccccc1
inactive: [4] 104 % of control | dose: 400.0 mg/kg/injection, schedule: Q01DX009 (ip), vehicle: saline with Tween-80 104 % of control

C=CC(C)(C)c1c2c(c(OC)c3ccc(=O)oc13)C=CC(C)(C)O2
inactive: dose: 25.0 mg/kg/injection, schedule: Q01DX005 (ip), vehicle: saline with Tween-80 105 % of control | [1] 99 % of control and 94 % of control | [3] 96 % of control

CN1CCN2C(=O)CCC2c2cc(Cl)ccc21 (stereo not drawn)
inactive: dose: 100.0 mg/kg/injection, schedule: Q01DX001 (ip), vehicle: saline with Tween-80 101 % of control | dose: 200.0 mg/kg/injection, schedule: Q01DX001 (ip), vehicle: saline with Tween-80 101 % of control | dose: 400.0 mg/kg/injection, schedule: Q01DX001 (ip), vehicle: saline with Tween-80 101 % of control

CCOC(=O)c1ccccc1Nc1c(C(=O)OCC)cnc2cc3c(cc12)OCO3
inactive: dose: 60.0 mg/kg/injection, schedule: Q01DX005 (ip), vehicle: Klucel (hydroxypropylcellulose) (HPC) 106 % of control | dose: 120.0 mg/kg/injection, schedule: Q01DX005 (ip), vehicle: Klucel (hydroxypropylcellulose) (HPC) 98 % of control | dose: 240.0 mg/kg/injection, schedule: Q01DX005 (ip), vehicle: Klucel (hydroxypropylcellulose) (HPC) 97 % of control

CC(C)C(NC(=O)C(Cc1c[nH]c2ccccc12)NC(=O)OC(C)(C)C)C(=O)NN (stereo not drawn) (Boc-Trp-Val-NHNH2; configuration not given here)
inactive: dose: 12.5 mg/kg/injection, schedule: Q01DX009 (ip), vehicle: other 98 % of control | dose: 25.0 mg/kg/injection, schedule: Q01DX009 (ip), vehicle: other 98 % of control | dose: 50.0 mg/kg/injection, schedule: Q01DX009 (ip), vehicle: other 91 % of control | dose: 100.0 mg/kg/injection, schedule: Q01DX009 (ip), vehicle: other 89 % of control | dose: 200.0 mg/kg/injection, schedule: Q01DX009 (ip), vehicle: other 94 % of control

c1ccc2c(c1)C1OC2c2cnccc21 (stereo not drawn)
inactive: dose: 100.0 mg/kg/injection, schedule: Q04DX002 (ip), vehicle: saline with Tween-80 95 % of control | dose: 200.0 mg/kg/injection, schedule: Q04DX002 (ip), vehicle: saline with Tween-80 96 % of control | dose: 400.0 mg/kg/injection, schedule: Q04DX002 (ip), vehicle: saline with Tween-80 93 % of control

O=C(NCc1ccc(S(=O)(=O)F)cc1)Oc1ccc([N+](=O)[O-])cc1
inactive: dose: 7.5 mg/kg/injection, schedule: Q01DX005 (ip), vehicle: saline with Tween-80 102 % of control | dose: 15.0 mg/kg/injection, schedule: Q01DX005 (ip), vehicle: saline with Tween-80 96 % of control | dose: 30.0 mg/kg/injection, schedule: Q01DX005 (ip), vehicle: saline with Tween-80 99 % of control | [5] 99 % of control and 112 % of control

NC(=O)c1cn[nH]c1N
inactive: dose: 25.0 mg/kg/injection, schedule: Q01DX009 (ip), vehicle: suspension in saline 118 % of control | dose: 50.0 mg/kg/injection, schedule: Q01DX009 (ip), vehicle: saline 90 % of control | dose: 50.0 mg/kg/injection, schedule: Q01DX009 (ip), vehicle: suspension in saline 97 % of control | dose: 100.0 mg/kg/injection, schedule: Q01DX009 (ip), vehicle: saline 90 % of control | dose: 100.0 mg/kg/injection, schedule: Q01DX009 (ip), vehicle: suspension in saline 104 % of control | dose: 200.0 mg/kg/injection, schedule: Q01DX009 (ip), vehicle: saline 87 % of control | dose: 200.0 mg/kg/injection, schedule: Q01DX009 (ip), vehicle: suspension in saline 94 % of control

Nc1ncnc2c1ncn2C1OC(COS(N)(=O)=O)C(O)C1O (stereo not drawn)
inactive: dose: 0.02 mg/kg/injection, schedule: Q01DX005 (ip), vehicle: saline 98 % of control | dose: 0.04 mg/kg/injection, schedule: Q01DX005 (ip), vehicle: saline 103 % of control | dose: 0.09 mg/kg/injection, schedule: Q01DX005 (ip), vehicle: saline 119 % of control | dose: 0.18 mg/kg/injection, schedule: Q01DX001 (ip), vehicle: saline 109 % of control

O=S(=O)(O)c1cc(O)c2c(N=Cc3ccccc3O)c(S(=O)(=O)O)ccc2c1
inactive: [5] 98 % of control | dose: 120.0 mg/kg/injection, schedule: Q01DX005 (ip), vehicle: saline with Tween-80 97 % of control | dose: 240.0 mg/kg/injection, schedule: Q01DX005 (ip), vehicle: saline with Tween-80 95 % of control

Cc1ccc(NC(=O)C(F)(F)F)cc1
inactive: [2] 113 % of control | dose: 100.0 mg/kg/injection, schedule: Q01DX009 (ip), vehicle: saline with Tween-80 108 % of control | [4] 108 % of control

CN(N=O)C1=NC(C)(CCl)P(=O)(NNc2ncccn2)O1 (stereo not drawn)
inactive: dose: 60.0 mg/kg/injection, schedule: Q01DX005 (ip), vehicle: saline 108 % of control | dose: 120.0 mg/kg/injection, schedule: Q01DX005 (ip), vehicle: saline 110 % of control

Clc1ccc(CN2COc3c(cc(Cl)c4cccnc34)C2)cc1
inactive: dose: 100.0 mg/kg/injection, schedule: Q04DX003 (ip), vehicle: Klucel (hydroxypropylcellulose) (HPC) 88 % of control | dose: 200.0 mg/kg/injection, schedule: Q04DX003 (ip), vehicle: Klucel (hydroxypropylcellulose) (HPC) 91 % of control | dose: 400.0 mg/kg/injection, schedule: Q04DX003 (ip), vehicle: Klucel (hydroxypropylcellulose) (HPC) 106 % of control

O=C1OCC2(C(=O)O)C(=O)OCC12 (stereo not drawn)
inactive: dose: 8.0 mg/kg/injection, schedule: Q01DX009 (ip), vehicle: saline with Tween-80 94 % of control | dose: 16.0 mg/kg/injection, schedule: Q01DX009 (ip), vehicle: saline with Tween-80 105 % of control and 108 % of control | dose: 32.0 mg/kg/injection, schedule: Q01DX009 (ip), vehicle: saline with Tween-80 107 % of control | dose: 64.0 mg/kg/injection, schedule: Q01DX009 (ip), vehicle: saline with Tween-80 100 % of control and 108 % of control | dose: 128.0 mg/kg/injection, schedule: Q01DX009 (ip), vehicle: saline with Tween-80 97 % of control
